16 compounds from patent publication US20150216182A1, “COMPOSITIONS AND METHODS OF THE ATTRACTION AND REPULSION OF INSECTS” (Olfactor Laboratories, Inc., priority 2012, published 2015) can be followed below.

Each structure is given as a SMILES string. Structures can show the parent of a compound that is named as a salt. Where two headings read alike, the source gives them in different places.

In assay [1] the test system is bed bugs (Cimex lectularius). Kind of assay: bed bug repellency assay. It is filed as in vivo. As to conditions: compound or combination on filter paper harborage, ten bed bugs. As to the method:
Compounds and combinations of compounds of the present invention were assayed for their ability to repel bed bugs (Cimex lectularius) using a bed bug repellency assay. This assay takes advantage of the bed bug's natural tendency to seek harborage. Two petri dishes were obtained and the inner areas of each were sanded down (leaving the perimeter smooth.) Talc was applied on the perimeter and on the inside walls of the petri dishes with a small paint brush to prevent bed bugs from escaping. A cut off top portion of a solo bathroom cup was placed upside down in the center of one petri dish. A large plastic secondary container was gathered and a paper towel was laid down inside the bottom. The petri dish was then placed inside and ten bed bugs were placed inside the cut off portion of the solo cup. Next, two pieces of filter paper were cut down the middle to yield 4 equally sized halves. 3 pieces were placed inside a glass dish ([…]) and the remaining piece was placed in a separate dish. All 4 pieces were folded down the middle to create a “tent” or “harborage” when laid such that the folded crease faced up. 100 microliters of isopropyl alcohol was pipetted into 3 pieces of filter paper (all housed in the first glass dish.) In a separate 4 ml vial, 90 microliters of isopropyl alcohol was combined and vortexed with 10 microliters of the compound or compound combination being tested. 100 microliters of this solution [comprising a total of 100 mg of compound(s)] was pipetted onto the filter paper in the separate dish. All filter papers were then allowed to dry. Once dry, experiments were conducted first with two filter paper halves comprising only the isopropyl alcohol (control experiment) and then with the remaining filter paper halves [one with only isopropyl alcohol and one comprising the test compound(s).] Filter paper halves were placed on opposing sides of experimental petri dishes and bed bugs were allowed to move freely within the dishes for 5 minutes. Movement of bed bugs beneath each filter paper tent was recorded. […] In the Table, “Rep” refers to repellency and “Cmpd” refers to compound.

The next assay has as its system cpA neurons. Kind of assay: extracellular single-sensillum electrophysiology: activation of cpA neuronal activity. As to conditions: for Class: Table 6, single compounds, increase over baseline cpA neuronal activity; for Comp B Class / Comp A Class: Table 9; for Comp B Class: component B tested individually; for Comp A Class: component A tested individually; for Class B (activator class of the individual component): Table 15, single component alone, Mod Actv; for Class (activator class of the individual component): Actv = activator.

The next assay relates to female mosquitoes. Kind of assay: whole plant or invertebrate. As to conditions: 2 h; for mortality at 200 µg/mL: read-out: % mortality with 0.2 mg/ml; for mortality at 2000 µg/mL: read-out: % mortality with 2 mg/ml.
Another assay relates to larvae. Kind of assay: larvicidal activity assay. It is filed as in vivo. As to conditions: for pest or weed control at 100 ppm: read-out: % Lethality at 100 ppm; for pest or weed control at 0.25 %: read-out: % Lethality with 0.25% compound conc. As to the method:
A 6-well plate (Corning Life Sciences, Tewksbury, Mass.) is used to test a compound's larvicidal activity. […] After a 24 hour exposure, the number of dead larvae are counted and recorded.
The results are presented in Table 17 as % lethality (the number of dead larvae divided by the total number of larvae).

The mark [2] stands for this setting: 0.25% compound, 24 hour exposure, dead larvae / total larvae.
The mark [3] stands for this setting: 100 ppm compound, 24 hour exposure, dead larvae / total larvae.

`O=CCc1ccccc1` [OLI0028, phenylacetaldehyde]: the “% Rep (bed bug repellency)” value in assay [1] turned out to be 50%. Further, in the assay with cpA neurons, the Class entry was “Moderate Activator (Moderate activators yield an increase in neuronal activity that is between 40 and 60 spk/sec over baseline neuronal activity)”; the “Comp B Class” value was “Mod”. Moreover, in the assay on female mosquitoes, the mortality at 200 µg/mL is 0% and the mortality at 2000 µg/mL is 0%.
In the case of `CCCCOC=O` [OLI0007, butyl formate], in the assay with larvae (24 h), the pest or weed control at 100 ppm is 0% and the pest or weed control at 0.25 % is 0%. In addition, in assay [1], the “% Rep (bed bug repellency)” value amounted to 6%. Moreover, the Class result in the assay on cpA neurons was “Strong Activator (strong activators yield an increase in activity that is >60 spk/sec over baseline neuronal activity)”. Further, in the assay with female mosquitoes, the mortality at 200 µg/mL came out at 0% and the mortality at 2000 µg/mL worked out at 0%.
Turning to `CCCC(O)CC(=O)OCC` (stereo not drawn) [OLI0021, ethyl 3-hydroxyhexanoate], in the assay on larvae (setting [2]), the pest or weed control at 0.25 % came to 0%. Further, in the assay on larvae (setting [3]), the pest or weed control at 100 ppm turned out to be 0%. For the same compound, the “% Rep (bed bug repellency)” value in assay [1] was 100%. Besides, in the assay with cpA neurons, the Class result was “Moderate Activator (Moderate activators yield an increase in neuronal activity that is between 40 and 60 spk/sec over baseline neuronal activity)”; the “Comp A Class” value is on record as “Mod”; the “Comp B Class” value was “Mod”; the “Class B (activator class of the individual component)” value (shortened to “Class B”) is “Mod”. Also, in the assay with female mosquitoes, the mortality at 200 µg/mL turned out to be 0% and the mortality at 2000 µg/mL is 75%.
For `CC1OCCC1=O` (stereo not drawn) [OLI0004, 2-methyltetrahydrofuran-3-one], the pest or weed control at 0.25 % in the assay with larvae (setting [2]) was found to be 0%. In the assay with larvae (setting [3]), the pest or weed control at 100 ppm is 0%. In addition, the “% Rep (bed bug repellency)” value in assay [1] amounted to 37%. For the same compound, the Class entry with cpA neurons was “Strong Activator (strong activators yield an increase in activity that is >60 spk/sec over baseline neuronal activity)”. Also, in the assay on female mosquitoes, the mortality at 200 µg/mL was 0% and the mortality at 2000 µg/mL was found to be 0%.
For `CC(=O)c1ccc(C)o1` [OLI0016, 2-acetyl-5-methyl furan], the pest or weed control at 0.25 % in the assay with larvae (setting [2]) stood at 100%. In addition, the pest or weed control at 100 ppm in the assay on larvae (setting [3]) turned out to be 0%. In assay [1], the “% Rep (bed bug repellency)” value is listed as 86%. Besides, in the assay with cpA neurons, the Class result is “Moderate Activator (Moderate activators yield an increase in neuronal activity that is between 40 and 60 spk/sec over baseline neuronal activity)”; the “Comp A Class” value was “Mod”; the “Comp B Class” value was “Mod”; the “Class B” value is given as “Mod”. Also, in the assay on female mosquitoes, the mortality at 200 µg/mL is 0% and the mortality at 2000 µg/mL was 0%.
Turning to `CCCCC=O` [OLI0066, valeraldehyde], the pest or weed control at 0.25 % in the assay with larvae (setting [2]) was 35%. In the assay on larvae (setting [3]), the pest or weed control at 100 ppm is 0%. Further, the “% Rep (bed bug repellency)” value in assay [1] amounted to 33%. Further, the Class result in the assay on cpA neurons is “Mild Activator (mild activators yield an increase in neuronal activity that is between 20 and 40 spk/sec over baseline neuronal activity)”. Also, in the assay on female mosquitoes, the mortality at 200 µg/mL stood at 0% and the mortality at 2000 µg/mL came out at 0%.
For `Cc1nccnc1C` [OLI0015, 2,3-dimethylpyrazine], the pest or weed control at 0.25 % with larvae (setting [2]) is 0%. In addition, the pest or weed control at 100 ppm in the assay with larvae (setting [3]) was 0%. Also, in assay [1], the “% Rep (bed bug repellency)” value is 77%. Besides, in the assay with cpA neurons, the Class result is “Moderate Activator (Moderate activators yield an increase in neuronal activity that is between 40 and 60 spk/sec over baseline neuronal activity)”; the “Comp A Class” value is given as “Mod”; the “Comp B Class” value is “Mod”; the “Class B” value was “Mod”. Moreover, the “Class (activator class of the individual component)” value in the assay with cpA neurons (Table 13, single component alone) is reported as “Mod”. In the assay on cpA neurons (Table 16, single component alone), the “Class (activator class of the individual component)” value is given as “Mod”. Also, the “activator class of single compound” value with cpA neurons (single compound) is “moderate activator (spike rate of 40-60 spk/sec over the baseline activity of the neuron)”. In addition, in the assay on female mosquitoes, the mortality at 200 µg/mL worked out at 0% and the mortality at 2000 µg/mL turned out to be 0%.
Turning to `Cc1cnc(C)c(C)n1` [OLI0014, 2,3,5-trimethylpyrazine], the pest or weed control at 0.25 % in the assay on larvae (setting [2]) was found to be 21%. Further, in the assay with larvae (setting [3]), the pest or weed control at 100 ppm came out at 0%. Also, the “% Rep (bed bug repellency)” value in assay [1] stood at 59%. In the assay on cpA neurons, the Class result is “Moderate Activator (Moderate activators yield an increase in neuronal activity that is between 40 and 60 spk/sec over baseline neuronal activity)”; the “Comp A Class” value is on record as “Mod”; the “Comp B Class” value is recorded as “Mod”; the “Class B” value is recorded as “Mod”. In the assay on female mosquitoes, the mortality at 200 µg/mL was determined as 0% and the mortality at 2000 µg/mL is 0%.
Turning to `CCc1ccc(O)cc1` [OLI0005, 4-ethylphenol], in the assay with larvae (24 h), the pest or weed control at 100 ppm was found to be 100% and the pest or weed control at 0.25 % amounted to 100%. In addition, the “% Rep (bed bug repellency)” value in assay [1] was 100%. In the assay with cpA neurons, the Class entry is “Strong Activator (strong activators yield an increase in activity that is >60 spk/sec over baseline neuronal activity)”. In the assay with female mosquitoes, the mortality at 200 µg/mL was determined as 0% and the mortality at 2000 µg/mL was determined as 100%.
With `CCOC(=O)c1ccco1` [OLI0009, ethyl 2-furoate], in the assay with larvae (setting [2]), the pest or weed control at 0.25 % came to 100%. The pest or weed control at 100 ppm in the assay on larvae (setting [3]) was found to be 0%. For the same compound, the “% Rep (bed bug repellency)” value in assay [1] was found to be 41%. In the assay with cpA neurons, the Class entry was “Strong Activator (strong activators yield an increase in activity that is >60 spk/sec over baseline neuronal activity)”. Further, in the assay on female mosquitoes, the mortality at 200 µg/mL was determined as 0% and the mortality at 2000 µg/mL is 0%.
Take `c1ccc2[nH]ccc2c1` [OLI0052, indole]: in the assay on larvae (24 h), the pest or weed control at 100 ppm is 100% and the pest or weed control at 0.25 % was found to be 100%. For the same compound, the “% Rep (bed bug repellency)” value in assay [1] was determined as 100%. Moreover, the Class entry in the assay on cpA neurons is “Mild Activator (mild activators yield an increase in neuronal activity that is between 20 and 40 spk/sec over baseline neuronal activity)”. Moreover, in the assay on female mosquitoes, the mortality at 200 µg/mL amounted to 0% and the mortality at 2000 µg/mL came to 100%.
Regarding `CCOC(=O)C(C)O` (stereo not drawn) [OLI0010, ethyllactate], in the assay with larvae (setting [2]), the pest or weed control at 0.25 % was determined as 0%. Besides, the pest or weed control at 100 ppm in the assay with larvae (setting [3]) was 0%. Further, the “% Rep (bed bug repellency)” value in assay [1] worked out at 37%. Besides, the Class result in the assay on cpA neurons is “Strong Activator (strong activators yield an increase in activity that is >60 spk/sec over baseline neuronal activity)”. For the same compound, in the assay with female mosquitoes, the mortality at 200 µg/mL came to 0% and the mortality at 2000 µg/mL amounted to 0%.
As to `CC(=O)c1ccco1` [OLI0017, 2-furyl methyl ketone], in the assay on larvae (setting [2]), the pest or weed control at 0.25 % came out at 100%. The pest or weed control at 100 ppm in the assay with larvae (setting [3]) worked out at 50%. For the same compound, the “% Rep (bed bug repellency)” value in assay [1] came to 60%. Besides, in the assay with cpA neurons, the Class entry is “Moderate Activator (Moderate activators yield an increase in neuronal activity that is between 40 and 60 spk/sec over baseline neuronal activity)”; the “Comp A Class” value is recorded as “Mod”; the “Class B” value is given as “Mod”. For the same compound, in the assay on female mosquitoes, the mortality at 200 µg/mL worked out at 0% and the mortality at 2000 µg/mL amounted to 0%.
Consider `COc1ccccc1O` [OLI0012, guaiacol], for which the pest or weed control at 0.25 % in the assay on larvae (setting [2]) was 100%. Besides, the pest or weed control at 100 ppm with larvae (setting [3]) amounted to 0%. For the same compound, the “% Rep (bed bug repellency)” value in assay [1] is recorded as 100%. In the assay on cpA neurons, the Class result was “Strong Activator (strong activators yield an increase in activity that is >60 spk/sec over baseline neuronal activity)”. Also, in the assay on female mosquitoes, the mortality at 200 µg/mL stood at 0% and the mortality at 2000 µg/mL was 0%.
Take `O=C/C=C/c1ccccc1` [OLI0065, trans-cinnamaldehyde]: in the assay with larvae (24 h), the pest or weed control at 100 ppm came out at 0% and the pest or weed control at 0.25 % worked out at 100%. The “% Rep (bed bug repellency)” value in assay [1] was determined as 100%. Moreover, in the assay with cpA neurons, the Class result was “Mild Activator (mild activators yield an increase in neuronal activity that is between 20 and 40 spk/sec over baseline neuronal activity)”. In the assay on female mosquitoes, the mortality at 200 µg/mL came to 0% and the mortality at 2000 µg/mL is 0%.
As to `C=CCOC(=O)CCC` [OLI0019, allyl butyrate], the pest or weed control at 0.25 % in the assay with larvae (setting [2]) was determined as 100%. The pest or weed control at 100 ppm in the assay with larvae (setting [3]) was 0%. Also, in assay [1], the “% Rep (bed bug repellency)” value worked out at 8%. For the same compound, in the assay with cpA neurons, the Class result was “Moderate Activator (Moderate activators yield an increase in neuronal activity that is between 40 and 60 spk/sec over baseline neuronal activity)”; the “Comp B Class” value is listed as “Mod”; the “Class B” value is “Mod”. In addition, in the assay with female mosquitoes, the mortality at 200 µg/mL is 0% and the mortality at 2000 µg/mL was determined as 0%.
